{
  "source": "patent US11986450B2",
  "about": "“Methods and compositions for treating infection and inflammation with selenocyanate” (National Jewish Health, priority 2017, dated 2024)",
  "key": {"AMT-9": {"system": "AMT-9", "test": "Bacterial sensitivity towards HOSCN killing", "type": "cell-based, Pseudomonas aeruginosa (PA)", "conditions": "AMT-9, CF sputum isolate; HOSCN flux for 2 hours, GOX/LPO/SCN system, pH 7.4", "description": "(§1) FIGS. 11A-11D. […] A lactoperoxidase (LPO) system was used to generate increasing fluxes of either HOSCN or HOSeCN in presence of 400 μM of either ^−SCN or ^−SeCN. LPO in the presence of a hydrogen peroxide generating system (glucose oxidase, GOX) can convert both thiocyanate and selenocyante to their respective hypopseudohalous acid species (HOSCN and HOSeCN) that are biocides. […] Bacterial inoculums (10^6 colony forming units, CFU) were incubated with host defense system for 2 hours at room temperature and bacteria were plated on LB agar plates and cell viability was determined by dilution and counting CFUs.\n(§2) LPO in the presence of a hydrogen peroxide generating system (glucose oxidase, GOX) can convert both thiocyanate and selenocyante to their respective hypopseudohalous acid species (HOSCN and HOSeCN) that are biocides. […] Bacterial inoculums (10^6 colony forming units, CFU) were incubated with host defense system for 2 hours at room temperature and bacteria were plated on LB agar plates and cell viability was determined by dilution and counting CFUs. Lethal concentrations that kill 50% of bacteria (LC50) were determined by non-linear curve fitting the data.\n(§3) Bacteria were incubated for 2 hour with LPO, ^−SCN or SeCN, glucose and increasing amounts of GOX. The flux (HOX) of either HOSCN or HOSeCN was determined from standard curves of GOX/LPO and either HOSCN or HOSeCN. LC50 values were determined by curve fitting the data with nonlinear regression of log (agonist) vs normalized response."}, "PA 39": {"system": "PA 39", "test": "Bacterial sensitivity towards HOSCN killing", "type": "cell-based, Pseudomonas aeruginosa (PA)", "conditions": "PA 39, CF sputum isolate; HOSCN flux for 2 hours, GOX/LPO/SCN system, pH 7.4", "description": "as §1, §2, §3"}, "PA-T": {"system": "PA-T", "test": "Bacterial sensitivity towards HOSCN killing", "type": "cell-based, Pseudomonas aeruginosa (PA)", "conditions": "CF sputum isolate, HOSCN flux for 2 hours, GOX/LPO/SCN system, pH 7.4", "description": "as §1, §2, §3"}, "PA-X": {"system": "PA-X", "test": "Bacterial sensitivity towards HOSCN killing", "type": "cell-based, Pseudomonas aeruginosa (PA)", "conditions": "CF sputum isolate, HOSCN flux for 2 hours, GOX/LPO/SCN system, pH 7.4", "description": "as §1, §2, §3"}, "PAO1": {"system": "PAO1", "test": "Bacterial sensitivity towards HOSCN killing", "type": "cell-based, Pseudomonas aeruginosa (PA)", "conditions": "HOSCN flux for 2 hours, GOX/LPO/SCN system, pH 7.4", "description": "as §1, §2, §3"}, "[1]": {"system": "Pseudomonas aeruginosa (PA01)", "test": "Bacterial viability (CFU) after HOSCN generation", "type": "cell-based", "conditions": "2 hrs, about 120 μM/hr", "description": "FIGS. 4A-4B. […] Studies were conducted under similar conditions that generated about 120 μM/hr of either HOCl or HOSCN. (FIG. 4A) Human bronchiolar lung cells (16HBE) or (FIG. 4B) Pseudomonas aeruginosa (PA01) were treated for 2 hrs with glucose oxidase (GOX) system (generates H2O2), enzyme alone (MPO or LPO), or full system (enzyme+GOX), or full system with […]. Viability was assessed 24 hrs later by lactate dehydrogenase release for lung cells or determination of colony forming units (CFUs) for bacteria."}, "[2]": {"system": "Sec-TrxR activity in J774 cells", "test": "Sec-TrxR activity induction in J774 cells", "type": "cell-based", "conditions": "2 hours exposure, lysates measured 24 hours later", "description": "FIG. 17. […] Cells were exposed to increasing concentrations of HOSCN, hydrogen peroxide or 100 ng/ml PA LPS for 2 hours and then cell lysates where measured 24 hours later for Sec-TrxR activity.\nThe role of extracellular SCN in modulating neutrophil responses to infectious stimuli, and to test how this impacts their ability to kill or suppress bacterial growth and attenuate pro-inflammatory environments is determined as provided for in Example 3 herein. De-identified human blood neutrophils from normal and CF subjects are used. Readouts include changes in bacterial growth rates, phagocytosis, and cytokine release over time correlated to changes in intracellular ^−SCN and Sec-TrxR levels. Additionally, how extracellular thiol levels modulate leukocyte function by changing intracellular thiol status and its known effects on dampening NFkB cell signaling pathways based on previous work with GSH (Gould, N. S., et al. (2011) Macropinocytosis of extracellular glutathione ameliorates tumor necrosis factor alpha release in activated macrophages. PLoS One 6, e25704) is disclosed. […] Since HOSCN is an oxidant and capable of redox signaling, examination of whether it can regulate its own metabolism by inducing Sec-TrxR expression is done."}, "E. coli: AB1157 [3]": {"system": "E. coli: AB1157", "test": "HOSCN reductase activity"}, "P. aeruginosa: PAO1": {"system": "P. aeruginosa: PAO1", "test": "HOSCN reductase activity"}, "P. aeruginosa: AMT0027L": {"system": "P. aeruginosa: AMT0027L", "test": "HOSCN reductase activity"}, "P. aeruginosa: AMT0105L": {"system": "P. aeruginosa: AMT0105L", "test": "HOSCN reductase activity"}, "P. aeruginosa: AMT0009L": {"system": "P. aeruginosa: AMT0009L", "test": "HOSCN reductase activity"}, "P. aeruginosa: AMT0058L": {"system": "P. aeruginosa: AMT0058L", "test": "HOSCN reductase activity"}, "P. aeruginosa: AMT0145L [4]": {"system": "P. aeruginosa: AMT0145L", "test": "HOSCN reductase activity"}, "[5]": {"system": "Human bronchial epithelial (16HBE) cells", "test": "HOSCN reductase activity", "conditions": "human 16HBE cells"}, "E. coli: AB1157 [6]": {"system": "E. coli: AB1157", "test": "Viability after HOSCN exposure"}, "P. aeruginosa: AMT0294L": {"system": "P. aeruginosa: AMT0294L", "test": "Viability after HOSCN exposure", "conditions": "late disease antibiotic-resistant CF isolate"}, "P. aeruginosa: AMT0145L [7]": {"system": "P. aeruginosa: AMT0145L", "test": "Viability after HOSCN exposure", "conditions": "late disease antibiotic-resistant CF isolate"}},
  "data": [
    {"compound": "N#CSO", "note": "[HOSCN, hypothiocyanite]", "values": [
      {"measurement": "HOSCN IC50", "setting": "AMT-9", "result": 5, "unit": "µM/h"},
      {"measurement": "HOSCN IC50", "setting": "PA 39", "result": 5, "unit": "µM/h"},
      {"measurement": "HOSCN IC50", "setting": "PA-T", "result": 48, "unit": "µM/h"},
      {"measurement": "HOSCN IC50", "setting": "PA-X", "result": 13, "unit": "µM/h"},
      {"measurement": "HOSCN IC50", "setting": "PAO1", "result": 18, "unit": "µM/h"},
      {"measurement": "Bacterial viability (CFU)", "setting": "[1]", "result": "killing bacteria"},
      {"measurement": "Sec-TrxR activity", "setting": "[2]", "result": "induces Sec-TrxR activity"},
      {"measurement": "Apparent Vmax (HOSCN reductase activity)", "setting": "E. coli: AB1157 [3]", "result": "ND^c (No activity detected. Limit of detection = 0.5 nmol mg^−1 min^−1)"},
      {"measurement": "Apparent Vmax (HOSCN reductase activity)", "setting": "P. aeruginosa: PAO1", "result": "ND^c (No activity detected. Limit of detection = 0.5 nmol mg^−1 min^−1)"},
      {"measurement": "Apparent Vmax (HOSCN reductase activity)", "setting": "P. aeruginosa: AMT0027L", "result": "ND^c (No activity detected. Limit of detection = 0.5 nmol mg^−1 min^−1)"},
      {"measurement": "Apparent Vmax (HOSCN reductase activity)", "setting": "P. aeruginosa: AMT0105L", "result": "ND^c (No activity detected. Limit of detection = 0.5 nmol mg^−1 min^−1)"},
      {"measurement": "Apparent Vmax (HOSCN reductase activity)", "setting": "P. aeruginosa: AMT0009L", "result": "0.8 ± 0.3", "unit": "nmol/mg/min"},
      {"measurement": "Apparent Vmax (HOSCN reductase activity)", "setting": "P. aeruginosa: AMT0058L", "result": "1.2 ± 0.2", "unit": "nmol/mg/min"},
      {"measurement": "Apparent Vmax (HOSCN reductase activity)", "setting": "P. aeruginosa: AMT0145L [4]", "result": "1.4 ± 0.1", "unit": "nmol/mg/min"},
      {"measurement": "Apparent Vmax (HOSCN reductase activity)", "setting": "[5]", "result": "14.7 ± 1.0", "unit": "nmol/mg/min"},
      {"measurement": "Viability (%)", "setting": "E. coli: AB1157 [6]", "result": 0, "unit": "%"},
      {"measurement": "Viability (%)", "setting": "P. aeruginosa: AMT0294L", "result": 0, "unit": "%"},
      {"measurement": "Viability (%)", "setting": "P. aeruginosa: AMT0145L [7]", "result": "24.8 ± 2.5", "unit": "%"}
    ]}
  ]
}
